Data reported in US9969768B1 (KING SAUD UNIVERSITY, priority 2017, dated 2018).

Columns and labels:
[1] = system: alloxan-induced diabetic mice; test: In vivo oral hypoglycemic activity, acute study; details: for % Change in SG: diabetic mice
Procedure: The percentage change in blood glucose levels in diabetic mice after oral administration of the test compounds, at a concentration of 200 μg/kg body weight, were determined at 2, 4, 6, and 24 hours.
The synthesized compounds were screened for hypoglycemic activity in vivo using the alloxan-induced diabetic mice model. For the acute study, animals were fasted overnight and the fasting blood serum glucose (SG) level was determined at 0 hours. Then the compounds were administered at a fixed dose of 200 μg/kg body weight orally (homogenized suspension in 0.5% carboxymethyl cellulose (CMC) with Tween 80). Animals in the vehicle group were given an equal amount of 0.5% CMC, while those in the control group were maintained as is. Blood samples were removed from all animals at 2, 4, 6 and 24 hours and percentage change in SG was calculated. See, Dunn, J. S., Letchie, N. G., “Experimental alloxan diabetes in the rat,” The Lancet 242(6265): 384-387 (1943); and Mourao R. H., Silva T. G., et al., “Synthesis and Biological Activity of Novel Acridinylidene and Benzylidene thiazolidinediones,” Eur. J. Med. Chem., 40: 1129-1133 (2005).

[2] = system: alloxan-induced diabetic mice; test: In vivo oral hypoglycemic activity, sub-acute study
Procedure: Study animals were fasted overnight, and the fasting SG levels calculated at 0 days. The test compounds were administered at a fixed dose of 200 μg/kg body weight orally (homogenized suspension in 0.5% CMC and permissible amounts of Tween 80) for 21 days at a fixed time. After 21 days, treatment was stopped and animals were left for a rest period of 7 days. Animals in the vehicle group were given an equal amount of 0.5% CMC, while those in the control group were maintained as is. During the study, blood samples were removed from all animals at 7, 14, 21 and 28 days, and the percentage change in SG was calculated. The data obtained were analyzed by one-way ANOVA followed by the Dunnett test. The results were expressed as mean±standard error of mean (SEM) for each group, while p<0.01 or p<0.05 was considered to be statistically significant. The percentage changes in blood glucose levels after oral administration, at 200 μg/kg body weight, were evaluated, and are reported in Table 5.

DPP-IV = biological target: T1, DPP-IV (Homo sapiens, UniProt P27487); test: DPP-IV inhibition activity (fluorescence); format: biochemical; details: mean ± S.E.M., n = 6
T1 construct: purchased Sigma
Procedure: A […] reaction system containing DPP-IV (Sigma), a test compound, and 25 mmol/L 4-(2-hydroxyethyl)-1-piperazineethanesulfonic acid (HEPES) buffer (containing 140 mmol/L NaCl, 1% Bovine serum albumin (BSA) and 80 mmol/L MgCl2) was pre-incubated at room temperature for 10 minutes. The reaction was initiated by the addition of […], and the reaction mixture was then incubated at room temperature for 25-45 minutes. […] A negative control (no test compound) and a blank control (no enzyme) were run simultaneously. The test compounds were initially assayed in duplicate at a concentration of 10 mg/mL.

PPAR = PPAR agonist activity, PPRE-Luc dual luciferase reporter in HepG2 cells; format: cell-based; details: mean ± S.E.M., n = 6
Procedure: HepG2 cells were cultured in low glucose Dulbecco's Modified Eagle's medium (DMEM) supplemented with 100 U/mL streptomycin and penicillin. One day prior to transfection, the cells were plated in 96-well plates at 1.5×10^4 cells per well. After reaching 70% confluence, plasmid peroxisome proliferator responsive element-luciferase (PPRE-Luc) with firefly luciferase reporter gene and the control plasmid phRL-TK with renilla luciferase reporter gene were transfected into the cells. After 24 hours, the medium was replaced with either fresh medium (negative control) or fresh medium containing a test compound (10 mg/mL) or pioglitazone (positive control). Non-transfected cells were used as blank. After a further 24 hours, the expression of luciferases was measured using the Dual Luciferase Reporter Gene Assay Kit (Promega). The percent activation (T %) was calculated as [(L1sample−L1Blank)/(L1Negative−L1Blank)]/[(L2Sample−L2Blank)/(L2Negative−L2Blank)]×100%, where L1 represents the value for the value for firefly luciferase and L2 the value for Renilla luciferase. Xing-hua Z., Jufang Y., LiFan, W., Dacheng Y., “Synthesis and antidiabetic activity of β-acetamido ketones,” Acta Pharmaceutica Sinica 1(2):100-105 (2011).

[3] = biological target: α-Glucosidase from Saccharomyces cerevisiae; test: α-Glucosidase inhibitory activity (chromogenic method); format: biochemical; details: mean ± S.E.M., n = 6
Procedure: The α-Glucosidase inhibitory activity of each compound was determined according to the chromogenic method described by Chapdelaine et al with slight modifications. See, Chapdelaine P., Tremblay R. R., Dube, J. Y., “P-Nitrophenol-alpha-D-gluco-pyranoside as substrate for measurement of maltase activity in human semen,” Clin. Chem., 24: 208-211 (1978). α-Glucosidase from Saccharomyces cerevisiae and substrate solution […] (PNPG) were prepared with 0.1 mol L^−1 of Na-phosphate buffer (pH 6.8). The inhibitors were reconstituted in […] phosphate buffer in a 96-well microplate and incubated with […] α-Glucosidase at 37° C. for 15 minutes, and then 30 μL substrate was added. After incubation with substrate for 5 minutes, release of p-nitrophenol was measured at 405 nm by spectrophotometry. Percentage of enzyme inhibition was calculated according to {1−(Asample−Ablank)/Acontrol}×100, where Asample represents absorbance of test samples, Acontrol represents absorbance of solution without sample, and A blank represents absorbance in presence of solution without substrate.

[4] = 2 h after 200 μg/kg body weight orally
[5] = 4 h after 200 μg/kg body weight orally
[6] = 6 h after 200 μg/kg body weight orally
[7] = 24 h after 200 μg/kg body weight orally
[8] = 7 day, 200 μg/kg body weight orally daily
[9] = 7 days rest period after 21 days of treatment, 200 μg/kg orally
[10] = 14 day, 200 μg/kg body weight orally daily
[11] = 21 day, 200 μg/kg body weight orally daily

T1 sequence (P27487 whole entry, species assumed): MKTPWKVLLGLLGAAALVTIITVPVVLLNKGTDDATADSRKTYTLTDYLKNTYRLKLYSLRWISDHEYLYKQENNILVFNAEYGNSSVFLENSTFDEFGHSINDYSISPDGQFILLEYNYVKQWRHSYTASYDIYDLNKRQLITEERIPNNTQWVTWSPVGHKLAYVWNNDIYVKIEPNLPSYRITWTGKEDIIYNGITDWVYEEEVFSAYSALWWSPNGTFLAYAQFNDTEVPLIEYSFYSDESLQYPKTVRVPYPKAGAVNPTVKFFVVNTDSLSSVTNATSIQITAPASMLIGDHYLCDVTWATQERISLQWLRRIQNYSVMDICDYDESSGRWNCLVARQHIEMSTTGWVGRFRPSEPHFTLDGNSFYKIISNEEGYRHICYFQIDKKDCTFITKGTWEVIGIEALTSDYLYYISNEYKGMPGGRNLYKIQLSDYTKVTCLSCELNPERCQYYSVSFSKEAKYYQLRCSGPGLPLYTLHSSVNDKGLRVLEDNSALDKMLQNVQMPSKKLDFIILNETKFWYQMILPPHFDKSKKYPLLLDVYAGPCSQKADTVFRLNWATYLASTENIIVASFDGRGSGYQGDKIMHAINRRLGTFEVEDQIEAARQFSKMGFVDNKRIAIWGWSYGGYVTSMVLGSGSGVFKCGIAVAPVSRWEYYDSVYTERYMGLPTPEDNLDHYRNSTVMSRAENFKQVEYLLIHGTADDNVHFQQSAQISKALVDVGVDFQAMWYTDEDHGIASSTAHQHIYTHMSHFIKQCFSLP

Compound | % Change in SG [1, 4] [%] | % Change in SG [1, 5] [%] | % Change in SG [1, 6] [%] | % Change in SG [1, 7] [%] | time of maximum activity post-administration ([1]; acute study, 200 μg/kg orally) [h] | % Change in SG [2, 8] [%] | % Change in SG [2, 9] [%] | % Change in SG [2, 10] [%] | % Change in SG [2, 11] [%] | IC50 (DPP-IV) [nM] | IC50 (PPAR) [nM] | IC50 [3] [nM]
CCc1ccc(CCOc2ccc(CC3SC(=O)NC3=O)cc2)nc1 (stereo not shown) [Pioglitazone, reference compound] | −32.16 | −22.45 | −12.34 | −13.28 | 2 | −11.23 | −43.45 | −18.34 | −50.39 | – | – | –
C[C@H]1O[C@H](O[C@H]2[C@H](O)[C@@H](O)[C@@H](O[C@H]3[C@H](O)[C@@H](O)C(O)O[C@@H]3CO)O[C@@H]2CO)[C@H](O)[C@@H](O)[C@@H]1N[C@H]1C=C(CO)[C@@H](O)[C@H](O)[C@H]1O (stereo partly shown) [Acarbose, reference compound] | −29.23 | −27.87 | −20.17 | −22.39 | – | −18.29 | −27.65 | −24.55 | −31.78 | 176000 | – | –
CC1(C)CC[C@]2(C(=O)O)CC[C@]3(C)C(=CC[C@@H]4[C@@]5(C)CC[C@H](O)C(C)(C)[C@@H]5CC[C@]43C)[C@@H]2C1 [Oleanolic acid, reference compound] | −40.79 | −48.66 | −52.17 | −51.01 | – | −10.56 | −30.32 | −20.35 | −37.68 | – | 14900 | –
methyl-2-{(4-pyridyl)-N-morpholinylmethane}-3-oxo-18β-olean-12-en-28-oate [Compound 4] | −78.88 | −85.89 | −90.00 | −88.88 | – | −67.90 | −86.43 | −74.78 | −90.87 | 4.4 ± 0.5 | 7.8 ± 0.5 | 87 ± 1
methyl-2-{N-(morpholino)methane}-3-oxo-18β-olean-12-ene-28-oate [Compound 5] | −70.60 | −79.01 | −80.43 | −75.41 | – | −60.89 | −84.29 | −70.53 | −85.45 | – | – | –
methyl-2-{N-(morpholino) methane}-3β-hydroxy-3α-phenyl-18β-Olean-12-ene-28-oate [Compound 6] | −73.60 | −80.74 | −82.33 | −77.80 | – | −61.68 | −85.89 | −70.54 | −86.45 | – | – | –
methyl-2-{phenyl-(4-pyridyl)-methane}-3-oxo-18β-olean-12-en-28-oate [Compound 3] | −75.78 | −82.76 | −85.74 | −79.67 | – | −66.76 | −83.56 | −73.65 | −89.76 | – | – | 123 ± 4
methyl-2-{4-pyridylidene}-3-oxo-18β-Olean-12-en-28-oate [Compound 2] | −74.70 | −81.67 | −84.30 | −80.78 | – | −62.35 | −86.25 | −71.78 | −87.54 | – | – | –
COC(=O)[C@]12CCC(C)(C)C[C@H]1C1=CC[C@@H]3[C@@]4(C)CCC(=O)C(C)(C)[C@@H]4CC[C@@]3(C)[C@]1(C)CC2 [Compound 1, 3-oxo-oleanolic acid methyl ester] | −69.40 | −71.89 | −79.32 | −73.29 | – | −59.76 | −81.20 | −68.78 | −84.65 | 91 ± 0.9 | 120 ± 4 | 1700 ± 30
